# Measurements: patent publication US5395947A, “Platinum(II) complex and processes for preparing the same” (Sunkyong Industries, Ltd., priority 1991, dated 1995)
# How the values were obtained:
# [1] = test system: murine leukemia L1210 cells; assay: Growth inhibition test on cultured murine leukemia L1210 cells; assay type: cell-based; settings: 48 hours, 37° C., Trypan blue viability
# Description: 1. Growth inhibition test on cultured murine leukemia L1210 cells
# Murine leukemia L1210 cells(1×10^5) were treated with various concentrations of the compounds prepared in the above examples in RPMI 1640 medium supplemented with 10% fetal calf serum, and cultured in a 5% CO2 humidified incubator at 37° C. for 48 hours. Their viability, estimated by staining with 0.17% Trypan blue, was compared with that of control cells cultured in the identical medium without the compounds.
# murine leukemia L1210 = assay: Antitumor activity test on murine leukemia L1210 in vivo; design: species or system male BDF1 mice; settings: days 1, 5, 9
# Description: 2. Antitumor activity test on murine leukemia L1210 in vivo
# Murine leukemia L1210 cells were maintained in the peritoneal cavities of 6-week-old male DBA/2 mice by weekly transfer in accordance with the procedure described in cancer chemotherapy Reports, Part 3, 3(2), 7 (1972). Specifically, 1×10^6 leukemia cells were inoculated into the abdominal cavities of 6-week-old male BDF1 mice weighing 21±3 g on day 0. Each treatment group consisted of seven mice. The test compounds were dissolved or suspended in 0.5% carboxymethyl cellulose(CMC)solution (in water) and were administered intraperitoneally on days 1, 5, and 9 relative to the tumor inoculation.
# Thirty mice of 6-week-old male BDF1 weighing 21±3 g were used as the control group, which were injected with 0.5% CMC solution only in the same manner as above.
# Anti-tumor activities of the compounds were evaluated in terms of the T/C % values calculated from the mean survival time(T) of the compound-treated group over that(C) of the control group. [formula]
# [2] = Test for water solubility; assay type: physicochemical; settings: water
# Description: 3. Test for water solubility
# A standard plot of UV absorbance(220 nm) vs. concentration was made; and employed to determine water-solubility.
# The mixture was then passed through a 0.45 micron disposable membrane filter before dilution and UV measurement.
# ICR mice = assay: Acute toxicity test; assay type: in vivo; design: Lethality: unit not given here; settings: for Lethality: 10080 min
# Description: 7-week-old ICR mice(male: 34±2 g; female: 31±2 g) were fed with solid food and water under the condition of 23±1° C. temperature and 65±5% humidity before the test.
# Each treatment group consisted of 6 mice. The test compounds were administered intraperitoneally.
# For 7 days after the administration, the appearance and the fate of the tested animals were recorded. The dead animals were subjected to autopsy and their visible pathological changes were observed. Their viscerals were stored in 10% formalin solution.
compound,measurement,setting,value
"CC1OC2C[NH2+][Pt-2]3([NH2+]CC2O1)[O]C(=O)C1(CCC1)C(=O)[O]3 [Example 22, cis-cyclobutane-1,1-dicarboxylato[(4R,5R)-4,5-bis(aminomethyl)-2-methyl-1,3-dioxolane]platinum(II)]",IC50 (concentration required for 50% inhibition of growth),[1],0.90 µg/mL
same,T/C (%),murine leukemia L1210; 6.2 mg/kg i.p.,125%
same,T/C (%),murine leukemia L1210; 12.5 mg/kg i.p.,129%
same,T/C (%),murine leukemia L1210; 25 mg/kg i.p.,247%
same,T/C (%),murine leukemia L1210; 50 mg/kg i.p.,262%
same,T/C (%),murine leukemia L1210; 100 mg/kg i.p.,382%
same,Solubility in water,[2],24.9 mg/mL
same,Number of dead mice for 7 days,"ICR mice; female, 94 mg/kg i.p.",0/6
same,"Number of dead mice, 1st day","ICR mice; female, 94 mg/kg i.p.",0/6
same,Number of dead mice for 7 days,"ICR mice; female, 123 mg/kg i.p.",1/6
same,"Number of dead mice, 1st day","ICR mice; female, 123 mg/kg i.p.",0/6
same,"Number of dead mice, 4th day","ICR mice; female, 123 mg/kg i.p.",1/6
same,Lethality,"ICR mice; female, 123 mg/kg i.p.",16.7
same,Number of dead mice for 7 days,"ICR mice; female, 160 mg/kg i.p.",3/6
same,"Number of dead mice, 1st day","ICR mice; female, 160 mg/kg i.p.",0/6
same,"Number of dead mice, 4th day","ICR mice; female, 160 mg/kg i.p.",2/6
same,"Number of dead mice, 5th day","ICR mice; female, 160 mg/kg i.p.",1/4
same,Lethality,"ICR mice; female, 160 mg/kg i.p.",50.0
same,Number of dead mice for 7 days,"ICR mice; female, 208 mg/kg i.p.",5/6
same,"Number of dead mice, 1st day","ICR mice; female, 208 mg/kg i.p.",0/6
same,"Number of dead mice, 3rd day","ICR mice; female, 208 mg/kg i.p.",1/6
same,"Number of dead mice, 4th day","ICR mice; female, 208 mg/kg i.p.",4/5
same,Lethality,"ICR mice; female, 208 mg/kg i.p.",83.3
same,Number of dead mice for 7 days,"ICR mice; female, 270 mg/kg i.p.",6/6
same,"Number of dead mice, 1st day","ICR mice; female, 270 mg/kg i.p.",0/6
same,"Number of dead mice, 2nd day","ICR mice; female, 270 mg/kg i.p.",4/6
same,"Number of dead mice, 3rd day","ICR mice; female, 270 mg/kg i.p.",2/2
same,Lethality,"ICR mice; female, 270 mg/kg i.p.",100.0
same,Number of dead mice for 7 days,"ICR mice; male, 94 mg/kg i.p.",0/6
same,"Number of dead mice, 1st day","ICR mice; male, 94 mg/kg i.p.",0/6
same,Number of dead mice for 7 days,"ICR mice; male, 123 mg/kg i.p.",0/6
same,"Number of dead mice, 1st day","ICR mice; male, 123 mg/kg i.p.",0/6
same,Number of dead mice for 7 days,"ICR mice; male, 160 mg/kg i.p.",4/6
same,"Number of dead mice, 1st day","ICR mice; male, 160 mg/kg i.p.",1/6
same,"Number of dead mice, 4th day","ICR mice; male, 160 mg/kg i.p.",1/5
same,"Number of dead mice, 5th day","ICR mice; male, 160 mg/kg i.p.",1/4
same,"Number of dead mice, 6th day","ICR mice; male, 160 mg/kg i.p.",1/3
same,Lethality,"ICR mice; male, 160 mg/kg i.p.",66.7
same,Number of dead mice for 7 days,"ICR mice; male, 208 mg/kg i.p.",5/6
same,"Number of dead mice, 1st day","ICR mice; male, 208 mg/kg i.p.",0/6
same,"Number of dead mice, 4th day","ICR mice; male, 208 mg/kg i.p.",4/6
same,"Number of dead mice, 5th day","ICR mice; male, 208 mg/kg i.p.",1/2
same,Lethality,"ICR mice; male, 208 mg/kg i.p.",83.3
same,Number of dead mice for 7 days,"ICR mice; male, 270 mg/kg i.p.",6/6
same,"Number of dead mice, 1st day","ICR mice; male, 270 mg/kg i.p.",0/6
same,"Number of dead mice, 2nd day","ICR mice; male, 270 mg/kg i.p.",2/6
same,"Number of dead mice, 3rd day","ICR mice; male, 270 mg/kg i.p.",4/4
same,Lethality,"ICR mice; male, 270 mg/kg i.p.",100.0
